These are literature values, as cited in patent US9623127B2, “Multimodal contrast and radiopharmaceutical agent for an imaging and a targeted therapy guided by imaging” (CENTRE NATIONAL DE LA RECHERCHE SCIENTIFIQUE, priority 2011, dated 2017).

For the data set the following is noted: 0.6 T, 20° C.

For `O=C([O-])CN(CCN(CC(=O)[O-])CC(=O)O)CCN(CC(=O)[O-])CC(=O)O.[Gd+3]` [Gd(III)DTPA], the “longitudinal relaxivity r1” value is 5.4 mM⁻¹ s⁻¹.
